# System: HCT-15 human cancer cells
# Assay: Cell cycle kinetics by flow cytometry (propidium iodide)
# Format: cell-based
# Design: key to Effect on cell cycle kinetics, G0/G1 / Effect on cell cycle kinetics, S / Effect on cell cycle kinetics, G2/M: n.s. means no significant; ** means highly significant; *** very highly significant
# Experimental: Cell lines were seeded in flasks (25 cm^2 area) containing 7 ml of culture medium. After 48 hours incubation at 37° C. the cell culture medium was replaced by a fresh medium in which the substance to be tested had been dissolved at the different concentrations required. Uscharin and 2″ oxo-voruscharin were tested at concentrations, which kill 50% and 30% of the cell population, represented by the IC50 and IC30 values, respectively. After 24 or 72 hours of treatment the cells were harvested in suspension, washed in Phosphate Buffer Saline (PBS) at 4° C. and permeabilized with 70% ethanol (at 4° C.) overnight at −20° C. The cells were then washed with PBS and incubated with propidium iodide solution (80 μg/ml) for 30 minutes at 37° C. and afterward at 4° C. overnight. Ribonuclease A (3% V/V) was added to the PI solution to break doubled-stranded RNA. The portrait of the cell cycle was established for each sample. Software incorporated into the flow cytometer was used to define precisely the percentage of cells in the different cell cycle phases. Each cell cycle phase was reported in terms of peak surface and calculated as a percentage. The surface of the entire cell cycle was 100%. Each experiment was carried out 3 times. The mean percentage of each different phase and the standard error of the related mean were calculated. Each cell cycle phase of a given condition was compared with the same cell cycle phase of control. The non-treated cells constituted control.
# Uscharin and 2″ oxo-voruscharin are highly toxic to human tumor cell lines. The concentrations used in the flow cytometry experiments were chosen in accordance with the MTT results (example 2). Three human cancer cell lines, Hs683, J82, and HCT-15 were tested and doses that killed 30 and 50 percent of the cells were applied to investigate whether uscharin and 2″ oxo-voruscharin promoted an accumulation in one of the cell cycle phases when the cell cultures were treated for 24 or 72 hours with increasing concentrations of the compounds. The IC50 and IC30 values for uscharin and 2″ oxo-voruscharin corresponding to the three tested cell lines are represented in Table E.
smiles,measurement,setting,value
"CC1CC2(NC(=O)CS2)C2(O)OC3CC4(C=O)C(CCC5C4CCC4(C)C(C6=CC(=O)OC6)CCC54O)CC3OC2O1 (stereo not shown) [2″oxo-voruscharin, 2″ oxo-voruscharin]","Effect on cell cycle kinetics, G0/G1","HCT-15, 24 h",n.s.
same,"Effect on cell cycle kinetics, G2/M","HCT-15, 24 h",n.s.
same,"Effect on cell cycle kinetics, S","HCT-15, 24 h",n.s.
same,"Effect on cell cycle kinetics, G0/G1","HCT-15, 72 h",n.s.
same,"Effect on cell cycle kinetics, G2/M","HCT-15, 72 h",n.s.
same,"Effect on cell cycle kinetics, S","HCT-15, 72 h",***
same,"cell cycle, S-phase","HCT-15, 72 hours, highest concentration tested (4.3×10^−8 M uscharin, 1.2×10^−8 M 2″oxo-voruscharin)",accumulation in S-phase
